Source: the NIST ThermoML archive (doi:10.1021/je049778g)
Numbers after ± are expanded uncertainties.

Conditions: Liquid; for mass density: 298.15 K, 101.33 kPa

mass density [kg/m3]	Normal boiling temperature [°C]	SMILES
799.5 ± 0.2	97.04 ± 0.03	CCCO [propan-1-ol]
785.1 ± 0.3	78.31 ± 0.03	CCO [ethanol]
786.5 ± 0.3	64.52 ± 0.03	CO [methanol]
780.8 ± 0.3	82.26 ± 0.03	CC(C)O [propan-2-ol]
